The results in this text go back to patent publication US9801961B2, “2-phenylimidazo[1,2-a]pyrimidines as imaging agents” (Hoffmann-La Roche Inc., priority 2013, dated 2017).

The first experiment has as its system native tau aggregates. Kind of experiment: TAU radioligand in vitro displacement assay ([3H]T808 autoradiography on human AD brain sections). The settings on record: compound 10 nM, radioligand [3H]T808 10 nM, 50 mM Tris pH 7.4, room temperature, 30 min. The experiment is classed as binding. As to the method:
TAU Radioligand-In-Vitro Displacement Assay
This in vitro binding assay assesses the affinity of compounds for native tau aggregates. The compounds are co-incubated with the well-established tau specific radioligand [^3H]T808 and the compound's displacement potency of [^3H]T808 binding is determined by in vitro autoradiography using human Alzheimer's disease (AD) brain sections (FIG. 1).
AD human brains are purchased from Banner Sun Health Research Institute (Sun City, Ariz., USA). Pathological diagnosis of AD is made according to standard NIA-Reagan Institute criteria based on neuropathological data. The radioligand [^3H]T808 was synthesized in-house ([^3H]-2-[4-(2-Fluoro-ethyl)-piperidin-1-yl]-benzo[4,5]imidazo[1,2-a]pyrimidine, radiochemical purity 99.0%). As a reference cold T808 is used (2-[4-(2-Fluoro-ethyl)-piperidin-1-yl]-benzo[4,5]imidazo[1,2-a]pyrimidine). For the autoradiography FujiFilm Imaging Plates (BAS-IP TR 2025) are exposed to the sections and read with a FujiFilm IP reader (BAS-5000).
Ten μm thick human AD brain sections are generated with a cryostat (Leica CM3050) at −17° C. chamber temperature and −15° C. object temperature. Sections are transferred to Histobond+microscope slides (Marienfeld Laboratory Glasware). After drying for 3 hours at room temperature the sections are stored at −20° C. The sections are incubated with the radioligand (10 nM) and the respective cold compound (at various concentrations) in 50 mM Tris buffer, pH 7.4 at room temperature for 30 min. After washing 3×10 min at 4° C. in 50 mM Tris buffer, pH 7.4 and 3 quick dips in H2O dist. at 4° C. the sections are dried at 4° C. for 3 h. The sections are placed in a FujiFilm Cassette (BAS 2025), exposed with an Imaging Plate for five days and afterwards scanned with a resolution of […].
The signal intensity (Dens—PSL/mm2) in the region of interest (ROI) of the autoradiogram is quantified with the software MCID analysis (version 7.0, Imaging Research Inc.). The specific binding (SB) of [^3H]T808 binding in absence or in presence of a compound is calculated by subtracting the non-specific binding signal in the white matter, thus yielding SB[3H]T808 only and SBcompund. The % displacement by the various compounds is calculated as following: % displacement=100−(SBcompund/SB[3H]T808 only)*100.
In each experiment cold T808 is used as a positive internal control. Co-incubation of equimolar amounts of hot and cold T808 is expected to reduce specific binding by approximately 50%.
With `FC1CCN(c2ccn3cc(-c4nc5ccccc5s4)nc3n2)CC1` [Example 79, 2-[7-(4-Fluoropiperidin-1-yl)imidazo[1,2-a]pyrimidin-2-yl]-1,3-benzothiazole], the “% displacement of [3H]T808 (10 nM) at 10 nM” value (“% displacement … at 10 nM” below) is given as 12%.
With `Cc1cccc(-c2cn3ccc(N4CCC4)nc3n2)c1` [Example 95, 7-(Azetidin-1-yl)-2-(3-methylphenyl)imidazo[1,2-a]pyrimidine], the “% displacement … at 10 nM” value was 38%.
As for `CN(CCF)c1ccn2cc(-c3ccc4c(c3)OCO4)nc2n1` [Example 87, 2-(1,3-Benzodioxol-5-yl)-N-(2-fluoroethyl)-N-methylimidazo[1,2-a]pyrimidin-7-amine], the “% displacement … at 10 nM” value turned out to be 15%.
Still for that read-out and setting: the same measure for `FCCC1CCN(c2ccn3cc(-c4ccc5c(c4)OCO5)nc3n2)CC1` [Example 57, 2-(1,3-Benzodioxol-5-yl)-7-[4-(2-fluoroethyl)piperidin-1-yl]imidazo[1,2-a]pyrimidine]: 9%; for `FCCC1CCN(c2ccn3cc(-c4ccc(N5CCOCC5)cc4)nc3n2)CC1` [Example 61, 4-[4-[7-[4-(2-Fluoroethyl)piperidin-1-yl]imidazo[1,2-a]pyrimidin-2-yl]phenyl]morpholine]: 10%.
`FC1CN(c2ccn3cc(-c4ccccc4)nc3n2)C1` [Example 71, 7-(3-Fluoroazetidin-1-yl)-2-phenylimidazo[1,2-a]pyrimidine]: the “% displacement … at 10 nM” value was 18%.
Consider `CNc1ccn2cc(-c3cccc(OCF)c3)nc2n1` [Example 131, 2-(3-(Fluoromethoxy)phenyl)-N-methylimidazo[1,2-a]pyrimidin-7-amine], for which the “% displacement … at 10 nM” value is given as 33%.
`FCCOc1cccc(-c2cn3ccc(NC4CC4)nc3n2)c1` [Example 134, N-Cyclopropyl-2-(3-(2-fluoroethoxy)phenyl)imidazo[1,2-a]pyrimidin-7-amine]: the “% displacement … at 10 nM” value is 6%.
On the same count and under the same terms, the same measure for `CNc1ccn2cc(-c3ccc(NC(C)=O)cc3)nc2n1` [Example 109, N-(4-(7-(Methylamino)imidazo[1,2-a]pyrimidin-2-yl)phenyl)acetamide]: 30%; for `Cc1ccc(-c2cn3ccc(N4CCC4)nc3n2)cc1` [Example 94, 7-(Azetidin-1-yl)-2-(4-methylphenyl)imidazo[1,2-a]pyrimidine]: 15%.
Still for that read-out and setting: to `CNc1ccn2cc(-c3ccc(OCF)cc3)nc2n1` [Example 132, 2-(4-(Fluoromethoxy)phenyl)-N-methylimidazo[1,2-a]pyrimidin-7-amine] belongs 36%.
`CNc1ccn2cc(-c3cc(OC)cc(OC)c3)nc2n1` [Example 144, 2-(3,5-Dimethoxyphenyl)-N-methylimidazo[1,2-a]pyrimidin-7-amine]: the “% displacement … at 10 nM” value came out at 14%.
As for `FC1CCN(c2ccn3cc(-c4ccc(N5CCCC5)cc4)nc3n2)CC1` [Example 14, 7-(4-Fluoropiperidin-1-yl)-2-(4-pyrrolidin-1-ylphenyl)imidazo[1,2-a]pyrimidine], the “% displacement … at 10 nM” value is reported as 18%.
For the compound `FC1CCN(c2ccn3cc(-c4cc5ccccc5s4)nc3n2)CC1` [Example 75, 2-(1-Benzothiophen-2-yl)-7-(4-fluoropiperidin-1-yl)imidazo[1,2-a]pyrimidine], the “% displacement … at 10 nM” value came out at 18%.
Turning to `COc1ccc(-c2cn3ccc(N(CCF)C4CC4)nc3n2)cc1` [Example 116, N-Cyclopropyl-N-(2-fluoroethyl)-2-(4-methoxyphenyl)imidazo[1,2-a]pyrimidin-7-amine], the “% displacement … at 10 nM” value amounted to 9%.
Turning to `Cc1ccc(-c2cn3ccc(N4CCCCC4)nc3n2)cc1` [Example 51, 2-(4-Methylphenyl)-7-piperidin-1-ylimidazo[1,2-a]pyrimidine], the “% displacement … at 10 nM” value is given as 8%.
For the compound `COc1ccc(-c2cn3ccc(N4CCC(F)CC4)nc3n2)cc1` [Example 3, 7-(4-Fluoropiperidin-1-yl)-2-(4-methoxyphenyl)imidazo[1,2-a]pyrimidine], the “% displacement … at 10 nM” value is reported as 31%.
On to `COc1cccc(-c2cn3ccc(N4CCCCC4)nc3n2)c1` [Example 50, 2-(3-Methoxyphenyl)-7-piperidin-1-ylimidazo[1,2-a]pyrimidine], for which the “% displacement … at 10 nM” value was 14%.
As to `FCOc1cccc(-c2cn3ccc(NC4CC4)nc3n2)c1` [Example 137, N-Cyclopropyl-2-(3-(fluoromethoxy)phenyl)imidazo[1,2-a]pyrimidin-7-amine], the “% displacement … at 10 nM” value amounted to 18%.
The same measure, in the same setting: the same measure for `CNc1ccn2cc(-c3ccc(O)c(OC)c3)nc2n1` [Example 98, 2-Methoxy-4-[7-(methylamino)imidazo[1,2-a]pyrimidin-2-yl]phenol]: 18%.
As to `FCCOc1ccc(-c2cn3ccc(NC4CC4)nc3n2)cc1` [Example 138, N-Cyclopropyl-2-(4-(2-fluoroethoxy)phenyl)imidazo[1,2-a]pyrimidin-7-amine], the “% displacement … at 10 nM” value turned out to be 20%.
With `CN(C)c1ccn2cc(-c3ccc(N4CCOCC4)cc3)nc2n1` [Example 45, N,N-Dimethyl-2-(4-morpholin-4-ylphenyl)imidazo[1,2-a]pyrimidin-7-amine], the “% displacement … at 10 nM” value stood at 29%.
As to `CNc1ccn2cc(-c3cccc(C)c3)nc2n1` [Example 62, N-Methyl-2-(3-methylphenyl)imidazo[1,2-a]pyrimidin-7-amine], the “% displacement … at 10 nM” value turned out to be 48%.
Consider `COc1ccc(-c2cn3ccc(N4CCOCC4)nc3n2)cc1OC` [Example 27, 4-[2-(3,4-Dimethoxyphenyl)imidazo[1,2-a]pyrimidin-7-yl]morpholine], for which the “% displacement … at 10 nM” value is on record as 17%.
Same read-out and setting: the same measure for `Cc1cccc(-c2cn3ccc(N4CCCCC4)nc3n2)c1` [Example 52, 2-(3-Methylphenyl)-7-piperidin-1-ylimidazo[1,2-a]pyrimidine]: 14%.
Regarding `Oc1ccc(-c2cn3ccc(N4CCCC4)nc3n2)cc1` [Example 28, 4-(7-Pyrrolidin-1-ylimidazo[1,2-a]pyrimidin-2-yl)phenol], the “% displacement … at 10 nM” value was 22%.
On to `COc1ccc(-c2cn3ccc(NC(C)C)nc3n2)cc1` [Example 77, N-Isopropyl-2-(4-methoxy-phenyl)-imidazo[1,2-a]pyrimidin-7-amine], for which the “% displacement … at 10 nM” value came out at 15%.
Turning to `FC1CCN(c2ccn3cc(-c4ccc5c(c4)OCO5)nc3n2)CC1` [Example 7, 2-(1,3-Benzodioxol-5-yl)-7-(4-fluoropiperidin-1-yl)imidazo[1,2-a]pyrimidine], the “% displacement … at 10 nM” value is reported as 21%.
Take `Fc1cccc(-c2cn3ccc(N4CCC4)nc3n2)c1` [Example 120, 7-(Azetidin-1-yl)-2-(3-fluorophenyl)imidazo[1,2-a]pyrimidine]: the “% displacement … at 10 nM” value is recorded as 22%.
As to `CNc1ccn2cc(-c3ccc(OC)c(F)c3)nc2n1` [Example 108, 2-(3-Fluoro-4-methoxyphenyl)-N-methylimidazo[1,2-a]pyrimidin-7-amine], the “% displacement … at 10 nM” value came to 36%.
Consider `Oc1cccc(-c2cn3ccc(NC4CC4)nc3n2)c1` [Example 133, 3-(7-(Cyclopropylamino)imidazo[1,2-a]pyrimidin-2-yl)phenol], for which the “% displacement … at 10 nM” value is 14%.
Consider `COc1cccc(-c2cn3ccc(N4CCC4)nc3n2)c1` [Example 113, 7-(Azetidin-1-yl)-2-(3-methoxyphenyl)imidazo[1,2-a]pyrimidine], for which the “% displacement … at 10 nM” value turned out to be 36%.
`COc1ccc(-c2cn3ccc(N4CC(C)C4)nc3n2)cc1` [Example 89, 2-(4-Methoxyphenyl)-7-(3-methylazetidin-1-yl)imidazo[1,2-a]pyrimidine]: the “% displacement … at 10 nM” value is 20%.

Staying with this experiment, now noted: compound 1 uM, radioligand [3H]T808 10 nM, 50 mM Tris pH 7.4, room temperature, 30 min.
Regarding `FC1CCN(c2ccn3cc(-c4ccsc4)nc3n2)CC1` [Example 63, 7-(4-Fluoropiperidin-1-yl)-2-thiophen-3-ylimidazo[1,2-a]pyrimidine], the “% displacement of [3H]T808 (10 nM) at 1 uM” value (“% displacement … at 1 uM” below) is on record as 70%.
As for `Fc1ccc(-c2cn3ccc(N4CCC(F)CC4)nc3n2)cc1` [Example 6, 2-(4-Fluorophenyl)-7-(4-fluoropiperidin-1-yl)imidazo[1,2-a]pyrimidine], the “% displacement … at 1 uM” value turned out to be 65%.
Take `FC1CCN(c2ccn3cc(-c4ccc(N5CCCC5)cc4)nc3n2)CC1` [Example 14, 7-(4-Fluoropiperidin-1-yl)-2-(4-pyrrolidin-1-ylphenyl)imidazo[1,2-a]pyrimidine]: the “% displacement … at 1 uM” value is recorded as 75%.
As for `COc1ccc(-c2cn3ccc(N4CCC(F)CC4)nc3n2)cc1` [Example 3, 7-(4-Fluoropiperidin-1-yl)-2-(4-methoxyphenyl)imidazo[1,2-a]pyrimidine], the “% displacement … at 1 uM” value amounted to 87%.
As for `FC1CCN(c2ccn3cc(-c4ccc5c(c4)OCO5)nc3n2)CC1` [Example 7, 2-(1,3-Benzodioxol-5-yl)-7-(4-fluoropiperidin-1-yl)imidazo[1,2-a]pyrimidine], the “% displacement … at 1 uM” value is 75%.
